Common to all, as to type: cell-based
Data set [1] deals with HT1080-EGFP (human/fibrosarcoma) cells. In words: Evaluation of toxicity: LDH assay. The conditions noted are these: lipid nanoparticle containing siRNA; absorbance relative to control cells without lipid nanoparticle set at 1.00. Here is the method: A. Provision of Cells • (i) A liquid medium (DMEM/Ham's F12, FBS+, P/S+) (FBS: fetal bovine serum, P/S: antibiotic) was taken out from a refrigerator and temperature-controlled in an incubator set at 37° C. • (ii) A cryotube containing the cells was taken out from a −80° C. freezer and thawed at once in an incubator set at 37° C. • (iii) A stock solution of the thawed cells was collected in a capped test tube. • (iv) The tube containing the cells was washed with the liquid medium, and the wash was also collected in the test tube. • (v) The tube was subjected to a centrifuge to precipitate the cells. • (vi) The supernatant was aspirated, and the liquid medium was added and gently tapped to disperse the cells. • (vii) A small amount of the cells-dispersed liquid medium was collected, and the number of cells was observed and counted under a microscope. • (viii) The cells were seeded in a 24-well plate such that the number of cells was 2×10^4 cells per well. For the plate for an LDH assay described later, the cells were seeded in a 96-well plate such that the number of cells was 4×10^3 cells per well. • (ix) The 24-well plate or the 96-well plate was placed in an incubator, and the cells were cultured for 24 hours under conditions of 37° C. and 5% CO2.
The introduction of lipid nanoparticles into cells for an LDH assay described later was carried out as follows. • (i) A 96-well plate was taken out from an incubator. • (ii) The liquid medium supernatant in the 96-well plate was aspirated and washed with phosphate buffered saline (PBS). • (iii) 160 μL of a liquid medium containing 10% FBS (FBS+/P/S+) was added to the washed 96-well plate. In addition, 40 μL of an LNP solution having an adjusted concentration was added. • (iv) The 96-well plate was placed in the incubator, and the cells were cultured for 24 hours under conditions of 37° C. and 5% CO2.
For Examples 1 to 9, a CCK-8 assay or an LDH assay was carried out to measure the metabolic activity of viable cells and relatively quantify the number of surviving cells to evaluate the toxicity of lipid nanoparticles.
An LDH assay was carried out by using a viable cell counting kit (DOJINDO LABORATORIES, Cytotoxicity LDH Assay Kit-WST) as follows. • (i) 20 μL of a lysis buffer was added to each of positive control wells and incubated at 37° C. for 30 minutes in an incubator. • (ii) 100 μL of the supernatant was taken from each well and transferred to a 96-well plate for measurement. • (iii) 100 μL of the reagent mixture attached to the kit was added to all the wells, and a color reaction was carried out for 30 minutes at room temperature with exclusion of light. • (iv) 50 μL of the stop solution reagent attached to the kit was added to all the wells. • (v) The 96-well plate was measured under conditions of a measurement wavelength of 490 nm and a target wavelength of 630 nm with a plate reader (manufactured by TECAN, Infinite M200) to calculate the absorbance. The absorbance was calculated with the absorbance of control cells to which no lipid nanoparticle was added set at 1.00. When the obtained value was 0.50 or less, a rating of double-circle (excellent) was given, when the obtained value was more than 0.50 and 1.0 or less, a rating of circle (good) was given, when the obtained value was more than 1.0 and less than 6.0, a rating of triangle (fair) was given, and when the obtained value was 6.0 or more, a rating of X-mark (poor) was given.

For another data set, the system named is HEK293T cells. In words: Evaluation of protein expression effect (luciferase luminescence), Cell experiment 2. To be noted: lipid nanoparticle containing mRNA, 100 ng mRNA/20 μL per well, 24 hours, amount of luminescence as index. As to the method: (§1) For lipids (Ia), (Ib), and (Ie) of Examples 1, 2, and 5, a cell experiment was carried out by using HEK293T cells and NIH3T3 cells in order to evaluate lipid nanoparticles encapsulating an mRNA. By transfecting the cells with lipid nanoparticles and measuring the amount of a predetermined protein produced, the performance of the lipid nanoparticles used can be evaluated. Hereinafter, the procedure of the cell experiment will be shown.
(§2) A. Seeding of Cells • (i) A liquid medium (DMEM High glucose, FBS+, P/S+) was temperature-controlled in an incubator set at 37° C. • (ii) A cryotube containing cells was taken out from a −80° C. freezer and thawed at once in the incubator set at 37° C. • (iii) A test tube was subjected to a centrifuge to precipitate the cells. • (iv) The supernatant was aspirated, and the liquid medium was added and gently tapped to disperse the cells. • (v) A small amount of the cells-dispersed liquid medium was collected, and the number of cells was observed and counted under a microscope. • (vi) The cells were seeded in three 24-well black plates such that the number of cells was 1×10^4 cells per well. The 24-well black plates were placed in an incubator, and the cells were cultured for 24 hours under conditions of 37° C. and 5% CO2.
(§3) B. Transfection • (i) A lipid nanoparticle-containing solution including an mRNA was concentrated such that the mRNA concentration was 100 ng/20 μL (=0.005 μg/μL). • (ii) A liquid medium (DMEM High glucose, FBS-, P/S-) and FBS were warmed to 37° C., required amounts of the liquid medium and FBS were mixed (FBS concentration of liquid medium at this time: 12.5%), and the prepared liquid medium was filter-sterilized through a 0.22 μm filter. • (iii) The liquid medium supernatant in the 24-well black plates in which the cells were cultured was aspirated and 80 μL per well of the prepared liquid medium was added. • (iv) 20 μL per well of RFW and the lipid nanoparticle-containing solution adjusted to the above concentration was added. • (v) The 24-well black plates were placed in an incubator, and the cells were cultured for 24 hours under conditions of 37° C. and 5% CO2.
(§4) C. Evaluation of Protein Expression Effect (Detection of Gaussia Luciferase (GLuc))
(§5) Evaluation of the protein expression effect was carried out by using Gaussia Luciferase Assay Kit manufactured by Thermo Scientific. • (i) The cells cultured in B. (v) above were taken out from the incubator and allowed to stand at room temperature. • (ii) 20 μL of the supernatant in the plates was collected and added to a fresh 96-well white plate. • (iii) 100× Coelenterazine and Gaussia Glow Assay Buffer attached to the kit were returned to room temperature and mixed at 1:100 to prepare a solution. The prepared solution was added to the supernatant at 50 μL per well by using a multipipette. • (iv) The plate was shielded from light with aluminum foil, allowed to stand for 10 minutes, and then measured for the amount of luminescence with a plate reader (manufactured by TECAN, Infinite M200) (measurement time: 2 seconds), and the protein expression level was calculated by using the resulting amount of luminescence as an index.

The test system of the next data set is NIH3T3 cells. Described as above. The conditions noted are these: lipid nanoparticle containing mRNA, 100 ng mRNA/20 μL per well, 24 hours, amount of luminescence as index. As to the method:
as §1, §2, §3, §4, §5

Here are results for seven compounds from patent publication US20240148664A1, “LIPID AND COMPOSITION” (SOGO PHARMACEUTICAL CO., LTD., priority 2021, published 2024).

Each structure is given as a SMILES string.

Turning to `CCCCCCCC/C=C\CCCCCCCCC(CCCCCCC/C=C\CCCCCCCC)OC(=O)C(CO)NC(=O)C(N)CCCNC(=N)N` [Example 4, (9Z,27Z)-hexatriaconta-9,27-dien-18-yl (2S)-2-((S)-2-amino-5-guanidinopentanamido)-3-hydroxypropionate], the “LDH Assay” value in data set [1] was “Δ (when the obtained value was more than 1.0 and less than 6.0, a rating of triangle (fair) was given)”.

Consider `CCCCCCCC/C=C\CCCCCCCCC(CCCCCCC/C=C\CCCCCCCC)OC(=O)[C@H](CCSC)NC(=O)[C@@H](N)CCCNC(=N)N` (stereo partly shown) [Example 6, (9Z,27Z)-hexatriaconta-9,27-dien-18-yl arginylmethioninate], for which the “LDH Assay” value in data set [1] was “◯ (when the obtained value was more than 0.50 and 1.0 or less, a rating of circle (good) was given)”.

On to `CCCCCCCC/C=C\CCCCCCCCC(CCCCCCC/C=C\CCCCCCCC)OC(=O)C(NC(=O)C(N)CCCNC(=N)N)C(C)O` [Example 5, (9Z,27Z)-hexatriaconta-9,27-dien-18-yl (2S)-2-((S)-2-amino-5-guanidinopentanamido)-3-hydroxybutanoate], for which the “LDH Assay” value in data set [1] is “⊚ (When the obtained value was 0.50 or less, a rating of double-circle (excellent) was given)”. In addition, the Protein expression level is reported as 100,000 in the data set with HEK293T cells and 60,000 in the data set on NIH3T3 cells.

In the case of `CCCCCCCC/C=C\CCCCCCCCC(CCCCCCC/C=C\CCCCCCCC)OC(=O)C(CC(=O)O)NC(=N)N` (stereo not shown) [Comparative Example 2, 3-guanidino-4-(((9Z,27Z)-hexatriaconta-9,27-dien-18-yl)oxy)-4-oxobutanoic acid, reference compound], the “LDH Assay” value in data set [1] is “⊚ (When the obtained value was 0.50 or less, a rating of double-circle (excellent) was given)”.

Turning to `CCCCCCCC/C=C\CCCCCCCCC(CCCCCCC/C=C\CCCCCCCC)OC(=O)C(CC(=O)O)NC(=O)C(N)CCCNC(=N)N` (stereo not shown) [Example 1, 3-(2-amino-5-guanidinopentanamido)-4-(((9Z,27Z)-hexatriaconta-9,27-dien-18-yl)oxy)-4-oxobutanoic acid], the “LDH Assay” value in data set [1] is recorded as “⊚ (When the obtained value was 0.50 or less, a rating of double-circle (excellent) was given)”. Besides, the figures for the Protein expression level in the data set on HEK293T cells and in the data set on NIH3T3 cells were 100,000 and 5,000, respectively.

For the compound `CCCCCCCC/C=C\CCCCCCCCC(CCCCCCC/C=C\CCCCCCCC)OC(=O)C(CCC(=O)O)NC(=O)C(N)CCCNC(=N)N` (stereo not shown) [Example 2, 4-(2-amino-5-guanidinopentanamido)-5-(((9Z,27Z)-hexatriaconta-9,27-dien-18-yl)oxy)-5-oxopentanoic acid], the “LDH Assay” value in data set [1] was “⊚ (When the obtained value was 0.50 or less, a rating of double-circle (excellent) was given)”. For the same compound, the results for the Protein expression level in the data set with HEK293T cells and in the data set on NIH3T3 cells were 800,000 and 25,000, respectively.

As for `CCCCCCCC/C=C\CCCCCCCCC(CCCCCCC/C=C\CCCCCCCC)OC(=O)C(CCC(=O)O)NC(=N)N` (stereo not shown) [Comparative Example 3, 4-guanidino-5-(((9Z,27Z)-hexatriaconta-9,27-dien-18-yl)oxy)-5-oxopentanoic acid, reference compound], the “LDH Assay” value in data set [1] is “Δ (when the obtained value was more than 1.0 and less than 6.0, a rating of triangle (fair) was given)”.
